# Read-outs that look alike come from different tables or passages of the source.
# Assays:
# [1] = Experimental pKa, common substituted piperazines, mean ± SD of 3 experiments
# [2] = Experimental pKa, PROTAC precursors, mean ± SD of 3 experiments
SMILES,pKa (physchem),"% protonation state at pH = 7.5, NI: not-ionized state (PROTAC precursors)","% protonation state at pH = 7.5, P: single protonation state (PROTAC precursors)",also measured
"CN1CCN(C)CC1 [1,4-Dimethylpiperazine, reference compound]",–,–,–,"pKa (physchem; [1]): ~8; % protonation state at pH = 7.5, DP: double protonation state (substituted piperazines): DP: 0.02%; % protonation state at pH = 7.5, NI: not-ionized state (substituted piperazines): NI: 21.59%; % protonation state at pH = 7.5, P: single protonation state (substituted piperazines): P: 78.38%"
"CC(=O)N1CCN(C)CC1 [1-Acetyl-4-methylpiperazine, reference compound]",–,–,–,"pKa (physchem; [1]): 7.06; % protonation state at pH = 7.5, NI: not-ionized state (substituted piperazines): NI: 73.36%; % protonation state at pH = 7.5, P: single protonation state (substituted piperazines): P: 26.64%; % protonation state at pH = 7.5, NI: not-ionized state (substituted piperazines, listed as 1-acetyl-4-methylpiperazine): 73.4%"
"CC(=O)N1CCNCC1 [1-Acetyl-piperazine, reference compound]",–,–,–,"pKa (physchem; [1]): 8.05 ± 0.02; % protonation state at pH = 7.5, NI: not-ionized state (substituted piperazines): NI: 21.99%; % protonation state at pH = 7.5, P: single protonation state (substituted piperazines): P: 78.01%"
"CCN1CCNCC1 [1-Ethylpiperazine, reference compound]",–,–,–,"pKa (physchem; [1]): 5.04 ± 0.03; % protonation state at pH = 7.5, DP: double protonation state (substituted piperazines): DP: 2.18%; % protonation state at pH = 7.5, NI: not-ionized state (substituted piperazines): NI: 0.34%; % protonation state at pH = 7.5, P: single protonation state (substituted piperazines): P: 97.48%"
"CN1CCNCC1 [1-Methylpiperazine, reference compound]",–,–,–,"pKa (physchem; [1]): 9.16; % protonation state at pH = 7.5, DP: double protonation state (substituted piperazines): DP: 2.13%; % protonation state at pH = 7.5, NI: not-ionized state (substituted piperazines): NI: 0.32%; % protonation state at pH = 7.5, P: single protonation state (substituted piperazines): P: 97.55%"
Cc1sc2c(c1C)C(c1ccc(Cl)cc1)=N[C@@H](CC(=O)N1CCN(C)CC1)c1nnc(C)n1-2 [Compound 2],7.14 ± 0.02,NI: 69.61%,P: 30.39%,–
COc1ccc2c(c1)c(CC(=O)N1CCN(C)CC1)c(C)n2C(=O)c1ccc(Cl)cc1 [Compound 4],6.93 ± 0.03,NI: 78.79%,P: 21.20%,–
C#CCN1CCN(C(=O)C[C@@H]2N=C(c3ccc(Cl)cc3)c3c(sc(C)c3C)-n3c(C)nnc32)CC1 [Compound 5],4.91 ± 0.14,NI: 99.74%,P: 0.26%,–
O=C(c1cc(Cc2n[nH]c(=O)c3ccccc23)ccc1F)N1CCN(Cc2ccccc2)CC1 [Compound 7],–,NI: 97.07%,P: 2.93%,pKa (physchem; [2]): 5.98 ± 0.01
CC(=O)CN1CCN(C(=O)c2ccc3c(c2)nc(Nc2cccc(Cl)c2)c2ccncc23)CC1 [Compound 8],–,NI: 99.71%,P: 0.29%,–
COc1ccc2c(c1)c(CC(=O)N1CCN(CC(C)=O)CC1)c(C)n2C(=O)c1ccc(Cl)cc1 [Compound 9],5.35 ± 0.04,–,P: 3.83%,–
CCOC(=O)CN1CCN(C(=O)Cc2c(C)n(C(=O)c3ccc(Cl)cc3)c3ccc(OC)cc23)CC1 [Compound 10],4.5 ± 0.06,NI: 99.9%,–,–
COc1ccc2c(c1)c(CC(=O)N1CCN(CCC(C)=O)CC1)c(C)n2C(=O)c1ccc(Cl)cc1 [Compound 12],5.98 ± 0.05,NI: 97.07%,P: 2.93%,–
COc1ccc2c(c1)c(CC(=O)N1CCN(CCCC(C)=O)CC1)c(C)n2C(=O)c1ccc(Cl)cc1 [Compound 13],6.75 ± 0.03,NI: 84.90%,P: 15.09%,–
COC(=O)CCCCN1CCN(C(=O)Cc2c(C)n(C(=O)c3ccc(Cl)cc3)c3ccc(OC)cc23)CC1 [Compound 14],7.07 ± 0.05,NI: 72.91%,–,–
COC(=O)CCCCCCN1CCN(C(=O)Cc2c(C)n(C(=O)c3ccc(Cl)cc3)c3ccc(OC)cc23)CC1 [Compound 15],7.41 ± 0.08,NI: 55.16%,–,–
COC(=O)CCC(=O)N1CCN(CCNC(=O)Cc2c(C)n(C(=O)c3ccc(Cl)cc3)c3ccc(OC)cc23)CC1 [Compound 16],–,NI: 98.73%,P: 1.27%,pKa (physchem; [2]): 5.61
COc1ccc2c(c1)c(CC(=O)N1CCN(CCOCCO)CC1)c(C)n2C(=O)c1ccc(Cl)cc1 [Compound 17],6.75 ± 0.14,NI: 84.90%,P: 15.10%,–
COc1ccc2c(c1)c(CC(=O)N1CCN(CCC(=O)N[C@H](C(=O)N3C[C@H](O)C[C@H]3C(=O)N[C@@H](C)c3ccc(-c4scnc4C)cc3)C(C)(C)C)CC1)c(C)n2C(=O)c1ccc(Cl)cc1 [PROTAC-6],–,–,–,"% protonation state at pH = 7.5, NI: not-ionized state (PROTACs): NI: 98.33%"
COc1ccc2c(c1)c(CC(=O)NCCCN1CCN(CCCNC(=O)CCC(=O)N[C@H](C(=O)N3C[C@H](O)C[C@H]3C(=O)N[C@@H](C)c3ccc(-c4scnc4C)cc3)C(C)(C)C)CC1)c(C)n2C(=O)c1ccc(Cl)cc1 [PROTAC-8],–,–,–,"pKa (physchem; Experimental pKa, PROTACs, mean ± SD of 3 experiments): 3.94; % protonation state at pH = 7.5, DP: double protonation state (PROTACs): DP: 0.02%; % protonation state at pH = 7.5, NI: not-ionized state (PROTACs): NI: 32.86%"
COc1ccc2c(c1)c(CC(=O)N1CCN(CCOCCOCC(=O)N[C@H](C(=O)N3C[C@H](O)C[C@H]3C(=O)N[C@@H](C)c3ccc(-c4scnc4C)cc3)C(C)(C)C)CC1)c(C)n2C(=O)c1ccc(Cl)cc1 [PROTAC-10],–,–,–,"% protonation state at pH = 7.5, NI: not-ionized state (PROTACs): NI: 94.44%"
"C1CNCCN1 [Piperazine, reference compound]",–,–,–,"% protonation state at pH = 7.5, DP: double protonation state: DP: 0.86%; % protonation state at pH = 7.5, NI: not-ionized state: NI: 0.67%; % protonation state at pH = 7.5, P: single protonation state: P: 98.48%"

# Source: publication PMC9361468 (RSC Advances, 2022)
